The values that follow come from publication PMC11904221 (EMBO Molecular Medicine, 2025).

Values joined by “and” are separate entries in the source; they are usually repeats but may differ in a detail not shown here. Equal values may be shown once.

The subject of experiment [1] is chick chorioallantoic membrane. Description: Chick chorioallantoic membrane (CAM) angiogenesis assay. To be noted: 48 h, 100 nM each, individual CAM, n = 8; control 99-131.
Another experiment deals with CT-26 cells on CAM. The experiment can be described thus: CAM implanted with CT-26 cells, tumor and vascularized area. The experiment is classed as in vivo, chick. To be noted: individual values. The source says: (§1) Tumor growth, apoptosis, proliferation, and/or the angiogenic index of the developed tumors were first evaluated.
(§2) (A) Scheme and workflow of apelin-dm preclinic studies. […] (B–D) Error bars indicate s.e.m. center values indicate mean (Mann–Whitney U test). […] The percentage of relative staining intensity corresponding to CD31, Ki67, and BIM expression in CT-26 and MC-38 tumors of treated mice are shown in (I–N). Scale bar, 100 µm. Data represent mean ± s.e.m. of 3–4 independent experiments. P values were calculated with the Student t test in GraphPad. […] Quantification of tumor area (P) and vascularized area (Q) relative to control untreated CAMs (n = 3 CAM per group) assigned 100%. Data represent mean ± s.e.m. P values were calculated with the Student t test in GraphPad. […] (S, T) The average blood flow expressed in % relative to blood flow measured in […] (S) and MDA-MB231 (T) developed tumors. Data represent mean ± s.e.m. of 3–4 independent experiments. P values were calculated with the Student t test in GraphPad. Source data are available online for this figure.
Fertilized eggs were allowed to mature ex ovo. […] Immunohistology in toto was performed for vessel staining.

The subject of a further experiment is retinal vasculature. Description: Retina angiogenesis assay. Further details: unit not given here. To be noted: P5 mice, isolectin B4, individual values; control 74-89. The experiment is classed as in vivo, mouse. The source says: (§3) Red arrows indicate the direction of vessel formation. […] All data are representative of three independent experiments. […] The two Furin cleavage sites are shown. […] (S–U) Plasmon waveguide resonance (PWR). […] Source data are available online for this figure.
(§4) Angiogenesis is a complex intercellular process involving the organization of various cells.
Following the treatment period, the mice were humanely euthanized, and their eyes were harvested. […] The retinas were carefully isolated and fixed in 4% PFA for 2 h at room temperature or overnight at 4 °C. After fixation, the retinas were blocked and permeabilized in a solution containing 1% bovine serum albumin (BSA) and 0.5% Triton X-100 overnight at 4 °C. Subsequently, the retinas were washed three times with a buffer solution composed of 0.5% Triton X-100, 1 mM CaCl2, 1 mM MgCl2, and 1 mM MnCl2 in PBS, pH 6.8. The retinas were then incubated with FITC-labeled Isolectin B4 (1:1000; Vector Laboratories) to label blood vessels. Following staining, the retinas were embedded in Tissue-Tek OCT Compound, and 10-μm cryosections were cut. Confocal immunofluorescence images were acquired with an inverted Nikon C2si Eclipse Ti-S microscope and analyzed using NIS-ElementsAR software (Nikon Instruments Europe B.V.).

In the next experiment the test system is CT-26 and MC-38 tumors. The experiment can be described thus: Subcutaneous tumor growth of cells stably expressing APLN or APLN-DM. The experiment is classed as in vivo, mouse.
In the next experiment the test system is CT-26 and MC-38 cells. The experiment can be described thus: Soft agar, proliferation and apoptosis of cells expressing APLN or APLN-DM. To be noted: cancer cells expressing the construct.
The subject of experiment [2] is HUVEC. The experiment can be described thus: VEGF-induced migration of HUVECs. The experiment is classed as cell-based, human. The note with it: VEGF 30 ng/ml, apelin-dm 100 nM, individual values; control column 95-118.
In experiment [3] the test system is HUVEC. The experiment can be described thus: HUVEC proliferation with VEGF, IncuCyte confluence. The experiment is classed as cell-based, human.
Text: as §3

The test system of the next experiment is ERK. To be noted: VEGF 30ng/mL, apelin-dm 100 nM, individual values n = 3.
The next experiment has as its system MDA-MB-231 tumors. Description: Tumor blood flow, laser Doppler, MDA-MB-231 tumors. The experiment is classed as in vivo, mouse. To be noted: Bevacizumab 5 (mg/Kg), individual values.
Text: as §1, §2
(§5) Additional experiments involved injecting 1 × 10^6 control CT-26/MC-38/MDA-MB231 cells into BALB/c, C57BL/6, or nude mice, respectively. […] LASER Doppler imaging assessed total blood flow, with FlowR® Hemodynamics visualization used for analysis. Results were expressed as % relative to pre-treatment tumor blood flow.

In experiment [4] the test system is aortic ring microvessel sprouting. Description: Aortic ring assay. Also noted: species or system mouse. To be noted: 100 nM, VEGF 30 ng/ml.
Text: as §4

Experiment [5] deals with HUVEC. The experiment can be described thus: Tube-like formation assay. The note with it: read-out: EC50 (reduction of 50% of junction number); HUVEC on Geltrex, 18h treatment, 5 nM to 5 μM, GraphPad Prism.
For a further experiment, the system named is HCT116 tumors. The experiment can be described thus: Tumor blood flow, laser Doppler, HCT116 tumors. The experiment is classed as in vivo, mouse. The note with it: Bevacizumab 5 (mg/Kg), individual values.
Text: as §1, §2, §5

For experiment [6] the following is noted: in vitro and in CAM assays; ref Ljoki et al, 2022; Ademi et al, 2021; cited from earlier work.

Turning to “APLN: wild-type APLN stably expressed in CT-26 or MC-38 cells by lentiviral vector (QRPRLSHKGPMPF)”, in experiment [1], the CAM vessel density is 120 and 252 and 210 and 201 and 189 and 155 and 145 and 136. In the experiment on CT-26 cells on CAM (same data as sheet 5N), the “CAM CT-26 quantification (Fig5P file)” value is 168 and 189 and 190. In addition, in the experiment on CT-26 cells on CAM (tumor or vascularized area not given), the “CAM CT-26 quantification (sheet 5N)” value was 168 and 189 and 190. The retina vascularization with retinal vasculature is 84.9099 and 86.8403 and 90.0489 and 88.5208 and 85.3624 and 89.8292 and 92.0113 and 89.1254 and 85.4258 and 94.4967 and 90.4185 and 89.0824 and 95.2514 and 99.1254 and 85.2991 and 91.6992 and 83.1786 and 91.7618 and 93.6101. Besides, the tumor volume in the experiment on CT-26 and MC-38 tumors (expressing cells, Rag2/γc, day 8, control 60.45, in mm³ (unit assumed)) is listed as 180.48; in the experiment on CT-26 and MC-38 tumors (expressing cells, Rag2/γc, day 11, control 142, in mm³ (unit assumed)), 571; in the experiment on CT-26 and MC-38 tumors (expressing cells, Rag2/γc, day 13, control 583.25, in mm³ (unit assumed)), 974.2; with CT-26 and MC-38 tumors (expressing cells, Rag2/γc, day 15, control 887.52, in mm³ (unit assumed)), 1295.1; in the experiment on CT-26 and MC-38 tumors (expressing cells, Rag2/γc, day 18, control 1263.6, in mm³ (unit assumed)) it was 2221; with CT-26 and MC-38 tumors (expressing cells, Rag2/γc, day 20, control 2040.04, in mm³ (unit assumed)), 2868. In addition, the tumor volume in the experiment with CT-26 and MC-38 tumors (tumor cells stably expressing the construct, Rag2/γc mice (Fig 2C), day 7, control 38.75) was found to be 39.12. The anchorage-independent growth result with CT-26 and MC-38 cells is “twofold increased”.

Consider VEGF, for which the HUVEC migration in the experiment with HUVEC [2] was 160 and 250 and 188 and 208 and 299 and 320 and 199. Also, the HUVEC confluence is given as 10 with HUVEC [3] (0 h, VEGF 30 ng/ml or apelin-dm 100 nM, means, n = 6 wells); 19 with HUVEC [3] (24 h); 33 in the experiment on HUVEC [3] (48 h); 55 in the experiment on HUVEC [3] (72 h); 75 with HUVEC [3] (96 h); 82 with HUVEC [3] (120 h). For the same substance, the “ERK phosphorylation relative to control untreated HUVEC assigned 100%” value in the experiment on ERK was 144.293 and 157.045 and 122.733.

For orientation: EC50 means the concentration at which the effect is half-maximal. As to Bevacizumab, the “tumor blood flow, % relative” value in the experiment with MDA-MB-231 tumors was 82 and 75 and 69 and 51; in the experiment on HCT116 tumors, 86 and 65 and 70 and 63 and 59. In addition, the “VEGF-induced aortic ring sprouting” value in experiment [4] is given as “apelin-dm was comparable in effect to Bevacizumab”. The EC50 in the experiment on HUVEC [5] is 83 nM and 130 nM. Further, the “concentration with inhibitory effects” value in [6] is “around 100 nM”.
